PubChem BioAssay (NCI)
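The compound was tested at five concentrations on cells cultured in 96-well plates, with a 48-hour exposure period. TGI: total growth inhibition.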

Experiments:
Assay in all cases: growth of human tumour cells (NCI), 48 h
COLO 205 colon = system: COLO 205 colon
HCT-15 colon = system: HCT-15 colon
HOP-92 NSCLC = system: HOP-92 NSCLC
K-562 leukemia = system: K-562 leukemia
M14 melanoma = system: M14 melanoma
MDA-N = system: MDA-N
NCI-H226 lung = system: NCI-H226 lung
OVCAR-8 ovarian = system: OVCAR-8 ovarian
SF-539 CNS = system: SF-539 CNS
SR leukemia = system: SR leukemia
UACC-257 melanoma = system: UACC-257 melanoma

SMILES | TGI (COLO 205 colon) [µM] | TGI (HCT-15 colon) [µM] | TGI (HOP-92 NSCLC) [µM] | TGI (K-562 leukemia) [µM] | TGI (M14 melanoma) [µM] | TGI (MDA-N) [µM] | TGI (NCI-H226 lung) [µM] | TGI (OVCAR-8 ovarian) [µM] | TGI (SF-539 CNS) [µM] | TGI (SR leukemia) [µM] | TGI (UACC-257 melanoma) [µM]
Nc1nc2c(c(-c3ccccc3Cl)n1)COC/C2=C\c1ccccc1Cl | 30.1 | 39.9 | 29 | 32 | 29.6 | 24.1 | 39.2 | 30.8 | 34.4 | 22.9 | 34.7
N#CCCN(CCC#N)c1ccc(/C=C2\SC(=S)NC2=O)cc1 | > 100 | > 100 | > 100 | > 100 | > 100 | > 100 | > 100 | > 100 | > 100 | > 100 | > 100
O=C(NNS(=O)(=O)c1ccc(Br)cc1)c1ccc(Cl)cc1NC(=O)C12CC3CC(CC(C3)C1)C2 | 24.5 | 45.4 | 27.3 | 24.4 | 33.6 | 32.2 | 35.6 | 31.9 | 32.3 | 35.5 | 26.9
CC(C(=O)NCCNC(=O)CCC(=O)N(C)O)C(=O)NCCNC(=O)CCC(=O)N(C)O | > 100 | > 100 | > 100 | > 100 | > 100 | > 100 | > 100 | > 100 | – | > 100 | > 100
Nc1ncnc2c1ncn2C1OC(CO)C(O)C1NS(=O)(=O)c1ccccc1 (stereo not given) | > 100 | > 100 | > 100 | > 100 | > 100 | > 100 | > 100 | > 100 | > 100 | > 100 | > 100
O=C(/C=C/c1ccc2c(c1)OCO2)NCCc1ccco1 | > 100 | – | > 100 | > 100 | > 100 | > 100 | > 100 | > 100 | > 100 | > 100 | > 100
CCNC(=O)NNc1ncnc2c1c(-c1ccc(Cl)cc1)cn2-c1ccc(C)cc1 | 29.9 | 47.8 | 34 | 46.5 | 32.3 | 36.8 | 37.9 | 28.8 | 33.2 | 43.3 | 35.7
NC(=S)Nc1ccc2c(c1)oc1ccccc12 | > 100 | > 100 | > 100 | > 100 | > 100 | > 100 | > 100 | > 100 | – | > 100 | > 100
